The source of these data is the NIST ThermoML archive (doi:10.1016/j.fluid.2008.04.002).

The structures appear in SMILES notation. ± gives the expanded uncertainty stated by the source.

The conditions of this data set: Liquid, Closed cell (Static) method.

Broadly, the vapor or sublimation pressure is the pressure of vapour in equilibrium with the condensed phase. `FCC(F)(F)F` [1,1,1,2-tetrafluoroethane]: the “vapor or sublimation pressure” value runs as follows: (263.43 K) 195.7 ± 1 kPa; (273.32 K) 287.1 ± 1.2 kPa; (283.22 K) 407.2 ± 1.5 kPa; (288.3 K) 483.6 ± 1.7 kPa; (293.29 K) 566.3 ± 1.9 kPa; (313.31 K) 1014.7 ± 3.3 kPa. In addition, the “vapor or sublimation pressure” value is 1680.4 ± 5.4 kPa (333.32 K) and 2636 ± 8.3 kPa (353.2 K).
Consider `FC(F)(F)C(F)(F)F` [hexafluoroethane], for which the “vapor or sublimation pressure” value (253.65 K) came to 1062.9 ± 2 kPa; the “vapor or sublimation pressure” value (258.46 K) turned out to be 1226.4 ± 2.2 kPa; the “vapor or sublimation pressure” value (263.43 K) stood at 1415.3 ± 4.6 kPa; the “vapor or sublimation pressure” value (263.45 K) turned out to be 1415.3 ± 2.5 kPa; the “vapor or sublimation pressure” value (268.33 K) was 1621.1 ± 2.8 kPa; the “vapor or sublimation pressure” value (273.29 K) is reported as 1850 ± 3.2 kPa. The “vapor or sublimation pressure” value runs as follows: (273.32 K) 1862 ± 6 kPa; (278.19 K) 2100.6 ± 3.6 kPa; (283.22 K) 2392 ± 7.6 kPa; (283.25 K) 2385.8 ± 4.1 kPa; (288.2 K) 2697.6 ± 4.6 kPa; (288.3 K) 2697.6 ± 8.6 kPa. The “vapor or sublimation pressure” value reads like this: (290.22 K) 2832.9 ± 4.8 kPa; (291.22 K) 2903.4 ± 5 kPa; (292.22 K) 2976.2 ± 5.1 kPa.
